Measured values published in patent US11427548B2 (Arvinas Operations, Inc., priority 2015, dated 2022).
Like-named read-outs stand apart in the source and are kept apart here.

Target: T1, Androgen Receptor (Homo sapiens, UniProt P10275)
T1 construct: endogenous in cells; host or cells: VCaP cells
T1 sequence (P10275 1-920): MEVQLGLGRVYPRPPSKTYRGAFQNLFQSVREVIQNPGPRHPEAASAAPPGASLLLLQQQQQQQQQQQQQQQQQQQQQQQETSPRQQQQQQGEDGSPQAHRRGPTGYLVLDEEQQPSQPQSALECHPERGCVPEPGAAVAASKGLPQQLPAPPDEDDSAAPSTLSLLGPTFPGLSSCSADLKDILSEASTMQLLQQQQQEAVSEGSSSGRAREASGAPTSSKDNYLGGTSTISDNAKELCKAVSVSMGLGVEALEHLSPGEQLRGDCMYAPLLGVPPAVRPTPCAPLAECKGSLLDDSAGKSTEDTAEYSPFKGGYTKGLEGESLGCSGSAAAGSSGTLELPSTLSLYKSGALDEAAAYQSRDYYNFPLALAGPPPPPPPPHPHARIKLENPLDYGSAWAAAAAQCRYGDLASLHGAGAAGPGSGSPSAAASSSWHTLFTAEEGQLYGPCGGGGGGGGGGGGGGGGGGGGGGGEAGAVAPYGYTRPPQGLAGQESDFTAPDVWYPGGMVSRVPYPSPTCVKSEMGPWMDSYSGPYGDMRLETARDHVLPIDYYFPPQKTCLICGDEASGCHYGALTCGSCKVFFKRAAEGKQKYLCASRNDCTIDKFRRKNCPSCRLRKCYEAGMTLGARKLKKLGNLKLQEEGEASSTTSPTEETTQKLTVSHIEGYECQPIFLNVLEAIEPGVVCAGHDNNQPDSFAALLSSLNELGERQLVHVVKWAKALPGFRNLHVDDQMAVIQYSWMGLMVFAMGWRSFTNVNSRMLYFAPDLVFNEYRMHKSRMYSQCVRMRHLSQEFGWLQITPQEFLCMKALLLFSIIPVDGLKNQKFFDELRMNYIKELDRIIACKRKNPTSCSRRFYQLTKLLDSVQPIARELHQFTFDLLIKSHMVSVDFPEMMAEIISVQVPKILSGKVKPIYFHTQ
Test: Androgen Receptor ELISA assay (PathScan AR ELISA) in VCaP cells: AR degradation, Dmax and DC50
Format: cell-based
Procedure, shortened: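 VCaP cells in phenol red-free RPMI with 5% charcoal-stripped FBS were grown at least 3 days, then given compound as 7 half-log doses in 0.1% DMSO with 0.1 nM R1881 for 24 h. Lysates went into a sandwich AR ELISA with TMB read at 450 nm.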

[1] = VCaP cells; Table 36; read-out: VCaP DC50
[2] = VCaP, read-out: VCaP Dmax (%), VCaP cells; Table 36
[3] = read-out: VCaP DC50; VCaP cells; Table 36
[4] = VCaP, VCaP cells; Table 36; read-out: VCaP Dmax (%)

| DC50 [1] [nM] | Dmax [2] [%] | Dmax [4] [%] | Compound | Dmax (VCaP, read-out: VCaP Dmax (%)) [%] | DC50 [3] [nM] |
| --- | --- | --- | --- | --- | --- |
| > 501 | < 25 |  | Cc1ncsc1-c1ccc([C@H](C)NC(=O)[C@@H]2C[C@@H](O)CN2C(=O)[C@@H](C(C)C)n2cc(-c3ccnc(OC4CN(c5ncc(C(=O)NC6C(C)(C)C(Oc7ccc(C#N)c(Cl)c7)C6(C)C)cn5)C4)c3)cn2)cc1 (stereo partly drawn) [Example 603, N-(3-(3-chloro-4-cyanophenoxy)-2,2,4,4-tetramethylcyclobutyl)-2-(3-((4-(1-((R)-1-((2S,4R)-4-hydroxy-2-(((S)-1-(4-(4-methylthiazol-5-yl)phenyl)ethyl)carbam-oyl)pyrrolidin-1-yl)-3-methyl-1-oxobutan-2-yl)-1H-pyrazol-4-yl)pyridin-2-yl)oxy)azetidin-1-yl)pyrimidine-5-carboxamide] |  |  |
| < 50 | 51 to 70 |  | Cc1ncsc1-c1ccc([C@H](C)NC(=O)[C@@H]2C[C@@H](O)CN2C(=O)[C@H](C(C)C)n2cc(-c3ccnc(OC4CN(c5ncc(C(=O)NC6C(C)(C)C(Oc7ccc(C#N)c(Cl)c7)C6(C)C)cn5)C4)c3)cn2)cc1 (stereo partly drawn) [Example 604, N-(3-(3-chloro-4-cyanophenoxy)-2,2,4,4-tetramethylcyclobutyl)-2-(3-((4-(1-((S)-1-((2S,4R)-4-hydroxy-2-(((S)-1-(4-(4-methylthiazol-5-yl)phenyl)ethyl)carbam-oyl)pyrrolidin-1-yl)-3-methyl-1-oxobutan-2-yl)-1H-pyrazol-4-yl)pyridin-2-yl)oxy)azetidin-1-yl)pyrimidine-5-carboxamide] |  |  |
|  |  |  | Cc1ncsc1-c1ccc([C@H](C)NC(=O)C2C[C@@H](O)CN2C(=O)[C@@H](NC(=O)c2cc3ccc(OC[C@H]4C[C@H](COc5ccc(N6C(=S)N(c7ccc(C#N)c(C(F)(F)F)c7)C(=O)C6(C)C)cc5)C4)cc3o2)C(C)(C)C)cc1 (stereo partly drawn) [Example 605, 1-(2-(6-((3-((4-(3-(4-cyano-3-(trifluoromethyl)phenyl)-5,5-dimethyl-4-oxo-2-thioxoimidazolidin-1-yl)phenoxy)methyl)cyclo-butyl)methoxy)benzo-furan-2-carboxamido)-3,3-dimethylbutanoyl)-4-hydroxy-N-(1-(4-(4-methylthiazol-5-yl)phenyl)ethyl)pyrroli-dine-2-carboxamide] | < 25 | > 501 |
| < 50 |  | 51 to 70 | Cc1nccn1-c1ccc([C@H](C)NC(=O)C2C[C@@H](O)CN2C(=O)C(NC(=O)COCC2CCN(c3ccc(C(=O)N[C@H]4C(C)(C)[C@H](Oc5ccc(C#N)c(Cl)c5)C4(C)C)cn3)CC2)C(C)(C)C)cc1 (stereo partly drawn) [Example 606, N-((1r,3r)-3-(3-chloro-4-cyanophenoxy)-2,2,4,4-tetramethylcyclobutyl)-6-(4-((2-(((S)-1-((2S,4R)-4-hydroxy-2-(((S)-1-(4-(2-methyl-1H-imidazol-1-yl)phenyl)ethyl)carbam-oyl)pyrrolidin-1-yl)-3,3-dimethyl-1-oxobutan-2-yl)amino)-2-oxoethoxy)methyl)piper-idin-1-yl)nicotinamide] |  |  |
| > 501 | 26 to 50 |  | Cc1ncsc1-c1ccc([C@H](C)NC(=O)[C@@H]2C[C@@H](O)CN2C(=O)[C@@H](NC(=O)COCCCCCNc2ccc(C(=O)N[C@H]3C(C)(C)[C@H](Oc4ccc(C#N)c(Cl)c4)C3(C)C)nn2)C(C)(C)C)cc1 [Example 607, N-((1r,3r)-3-(3-chloro-4-cyanophenoxy)-2,2,4,4-tetramethylcyclobutyl)-6-((5-(2-(((S)-1-((2S,4R)-4-hydroxy-2-(((S)-1-(4-(4-methylthiazol-5-yl)phenyl)ethyl)carbam-oyl)pyrrolidin-1-yl)-3,3-dimethyl-1-oxobutan-2-yl)amino)-2-oxoethoxy)pentyl)amino) pyridazine-3-carboxamide] |  |  |
|  |  |  | Cc1ncsc1-c1ccc([C@H](C)NC(=O)[C@@H]2C[C@@H](O)CN2C(=O)[C@H](C(C)C)n2cc(-c3ccnc(N4CC[C@H](Oc5ccc(N6C(=S)N(c7ccc(C#N)c(C(F)(F)F)c7)C(=O)C6(C)C)cc5)C4)c3)cn2)cc1 [Example 609] | < 25 | > 501 |
|  |  |  | Cc1ncsc1-c1ccc([C@H](C)NC(=O)[C@@H]2C[C@@H](O)CN2C(=O)[C@@H](C(C)C)n2cc(-c3ccnc(N4CC[C@H](Oc5ccc(N6C(=S)N(c7ccc(C#N)c(C(F)(F)F)c7)C(=O)C6(C)C)cc5)C4)c3)cn2)cc1 [Example 610, (2S,4R)-1-((R)-2-(4-(2-((S)-3-(4-(3-(4-cyano-3-(trifluoromethyl)phenyl)-5,5-dimethyl-4-oxo-2-thioxoimidazolidin-1-yl)phenoxy)pyrrolidin-1-yl)pyridin-4-yl)-1H-pyrazol-1-yl)-3-methylbutanoyl)-4-hydroxy-N-((S)-1-(4-(4-methylthiazol-5-yl)phenyl)ethyl)pyrroli-dine-2-carboxamide] | < 25 | > 501 |
|  |  |  | Cc1nccn1-c1ccc([C@H](C)NC(=O)[C@@H]2C[C@@H](O)CN2C(=O)[C@H](C(C)C)n2cc(OCCCOCCCCCOc3ccc(N4C(=S)N(c5ccc(C#N)c(C(F)(F)F)c5)C(=O)C4(C)C)cc3)cn2)cc1 [Example 611, (2S,4R)-1-((S)-2-(4-(3-((5-(4-(3-(4-cyano-3-(trifluoromethyl)phenyl)-5,5-dimethyl-4-oxo-2-thioxoimidazolidin-1-yl)phenoxy)pentyl)oxy)propoxy)-1H-pyrazol-1-yl)-3-methylbutanoyl)-4-hydroxy-N-((S)-1-(4-(2-methyl-1H-imidazol-1-yl)phenyl)ethyl)pyrrolidine-2-carboxamide] | < 25 | > 501 |
|  |  |  | Cc1ncsc1-c1ccc([C@H](C)NC(=O)[C@@H]2C[C@@H](O)CN2C(=O)C(NC(=O)COCCCOCC[C@@H](O)CCOc2ccc(N3C(=S)N(c4ccc(C#N)c(C(F)(F)F)c4)C(=O)C3(C)C)cc2)C(C)(C)C)cc1 (stereo partly drawn) [Example 613, 1-(2-(2-(3-((5-(4-(3-(4-cyano-3-(trifluoromethyl)phenyl)-5,5-dimethyl-4-oxo-2-thioxoimidazolidin-1-yl)phenoxy)-3-hydroxypentyl)oxy)pro-poxy)acetamido)-3,3-dimethylbutanoyl)-4-hydroxy-N-(1-(4-(4-methylthiazol-5-yl)phenyl)ethyl)pyrrolidine-2-carboxamide] | 26 to 50 | > 501 |
|  |  |  | Cc1ncsc1-c1ccc([C@H](C)NC(=O)[C@@H]2C[C@@H](O)CN2C(=O)[C@@H](NC(=O)CN2CCO[C@H](COCCCCCOc3ccc(N4C(=S)N(c5ccc(C#N)c(C(F)(F)F)c5)C(=O)C4(C)C)cc3)C2)C(C)(C)C)cc1 [Example 614, (2S,4R)-1-((S)-2-(2-((S)-2-(((5-(4-(3-(4-cyano-3-(trifluoromethyl)phenyl)-5,5-dimethyl-4-oxo-2-thioxoimidazolidin-1-yl)phenoxy)pentyl)oxy)methyl)morpholino)ace-tamido)-3,3-dimethylbutanoyl)-4-hydroxy-N-((S)-1-(4-(4-methylthiazol-5-yl)phenyl)ethyl)pyrrolidine-2-carboxamide] | 26 to 50 | > 501 |
| < 50 |  | > 71 | Cc1ncsc1-c1ccc([C@H](C)NC(=O)[C@@H]2C[C@@H](O)CN2C(=O)[C@@H](NC(=O)CN2CCN(CCOc3ccc(C(=O)N[C@H]4C(C)(C)[C@H](Oc5ccc(C#N)c(Cl)c5)C4(C)C)cc3)CC2)C(C)(C)C)cc1 [Example 615, (2S,4R)-1-((S)-2-(2-(4-(2-(4-(((1r,3r)-3-(3-chloro-4-cyanophenoxy)-2,2,4,4-tetramethylcyclobutyl)carbamoyl)phenoxy)eth-yl)piperazin-1-yl)acetamido)-3,3-dimethylbutanoyl)-4-hydroxy-N-((S)-1-(4-(4-methylthiazol-5-yl)phenyl)ethyl)pyrrolidine-2-carboxamide] |  |  |
|  |  |  | Cc1ncsc1-c1ccc([C@H](C)NC(=O)[C@@H]2C[C@@H](O)CN2C(=O)C(C(C)C)n2cnc(-c3ccnc(N4CC[C@H](Oc5ccc(N6C(=S)N(c7ccc(C#N)c(C(F)(F)F)c7)C(=O)C6(C)C)cc5)C4)c3)c2)cc1 (stereo partly drawn) [Example 617, 1-(2-(4-(2-(3-(4-(3-(4-cyano-3-(trifluoromethyl)phenyl)-5,5-dimethyl-4-oxo-2-thioxoimidazolidin-1-yl)phenoxy)pyrrolidin-1-yl)pyridin-4-yl)-1H-imidazol-1-yl)-3-methylbutanoyl)-4-hydroxy-N-(1-(4-(4-methylthiazol-5-yl)phenyl)ethyl)pyrrolidine-2-carboxamide] | < 25 | > 501 |
